Source: patent US5045566A, “Novel imidate insecticides” (ICI Americas Inc., priority 1989, dated 1991)

How the values were obtained:
Assay type in all cases: in vivo
[1] = tested on: Housefly [Musca domestica]; assay: Housefly contact mortality in dishes (HF), 48 hours; conditions: μg of test compound per 25 female flies
Description: (§1) The compounds in Tables 1 and 2 above were tested for insecticidal activity using the following testing procedures. LC50 values, based on the results of these tests and calculated according to dosage-mortality curves, are expressed in Table 3.
Housefly [Musca domestica]:
Test compounds were diluted in acetone and aliquots pipetted onto the bottom of aluminum dishes. To ensure even spreading of the chemical on the bottom of the dishes, 1 ml of acetone containing 0.01% peanut oil was also added to each dish. After all solvents had evaporated, the dishes were placed in circular cardboard cages containing 25 female houseflies, 1-2 days old. The cages were covered on the bottom with cellophane and on the top with tulle netting, and each contained a sugar-water saturated cotton plug for maintenance of the flies. Mortality was recorded after 48 hours. Test levels ranged from 100 μg/25 female houseflies downward. The LC-50 value is expressed below in Table 3 under the heading "HF", in terms of μg of the test compound per 25 female flies.

[2] = tested on: Cabbage Looper [Trichoplusia ni (Hubner)]; assay: Cabbage looper leaf dip (CL), 3-5 days; conditions: percent in solution, second-instar larvae
Description: as §1
Cabbage Looper [Trichoplusia ni (Hubner)]:
Test compounds were diluted in a 50-50 acetone-water solution. Cotyledons of hyzini squash (Calabacita abobrinha), approximately 1×1.5 inches, were immersed in the test solutions for 2-3 seconds and placed on a wire screen to dry. The dried leaves were placed in petri dishes containing a moistened piece of filter paper and infested with 5 second-instar cabbage looper larvae. The dishes were placed in a high humidity chamber. Mortality of the larvae was recorded 3-5 days later. Test concentrations ranged from 0.1% downward. The LC-50 value is expressed below in Table 3 under the heading "CL" in terms of percent of the test compound in solution.

[3] = tested on: Tobacco Budworm [Heliothis virescens (Fabricius)] eggs; assay: Tobacco budworm eggs (TBW-E); conditions: percent in solution; 2-day old eggs
Description: as §1
Tobacco Budworm [Heliothis virescens (Fabricius)]:
(b). Eggs: Paper towel patches of 2-day old eggs of the tobacco budworm were dipped in acetone solutions of the test compound and placed in petri dishes containing a portion of larval rearing medium. Treated eggs were maintained at 78° F. and mortality was recorded after all control eggs had hatched and the young larvae were feeding on the media. Test concentrations ranged from 0.1% downward. The LC-50 value is expressed below in Table 3 under the heading "TBW-E" in terms of percent of the test compound in the solution.

| SMILES | LC50 HF [1] [µg] | LC50 CL [2] [%] | LC50 TBW E (eggs) [3] [%] |
| --- | --- | --- | --- |
| CCC(C)C(=Nc1ccc(Cl)cc1)OCc1cccc(Oc2ccccc2)c1 (stereo not drawn) [Compound 26] | > 100 | 0.007 | > 0.1 |
| CC(Cl)C(=Nc1ccc(Cl)c(Cl)c1)OCc1cccc(Oc2ccccc2)c1 (stereo not drawn) [Compound 27] | > 100 | 0.04 | > 0.1 |
| CCC(=Nc1cccc(Cl)c1Cl)OCc1cccc(Oc2ccccc2)c1 [Compound 28] | > 100 | 0.009 | > 0.1 |
| CCC(=Nc1ccc(Cl)c(Cl)c1)OCc1cccc(Oc2ccccc2)c1 [Compound 36] | 20 | 0.024 | > 0.1 |
| CCCC(=Nc1ccc(Cl)c(Cl)c1)OCc1cccc(Oc2ccccc2)c1 [Compound 38] | 33 | 0.006 | 0.05 |
| CCC(C)C(=Nc1ccc(Cl)c(Cl)c1)OCc1cccc(Oc2ccccc2)c1 (stereo not drawn) [Compound 39] | > 100 | 0.0023 | > 0.1 |
| CC(C)C(=Nc1ccc(Cl)c(Cl)c1)OCc1cccc(Oc2cccc(F)c2)c1 [Compound 40] | 36 | 0.0025 | 0.08 |
| CCC(=Nc1ccc(F)cc1F)OCc1cccc(Oc2ccccc2)c1 [Compound 59] | 25 | 0.02 | > 0.1 |
| COc1ccc(N=C(OCc2cccc(Oc3ccc(F)cc3)c2)C(C)C)cc1Cl [Compound 110] | 26 | 0.007 | 0.04 |
| CC(C)C(=Nc1cccc(Oc2ccccn2)c1)OCc1cccc(Oc2ccccc2)c1 [Compound 114] | 92 | < 0.1 |  |
| CCC(=Nc1ccc(F)c(Cl)c1)OCc1cccc(Oc2ccc(F)cc2)c1 [Compound 115] | 10 | 0.0012 | 0.075 |
| CC(Br)C(=Nc1ccc(F)c(Cl)c1)OCc1cccc(Oc2ccccc2)c1 (stereo not drawn) [Compound 118] | 18 | 0.0013 | > 0.1 |
| CCCCC(=Nc1ccc(F)c(Cl)c1)OCc1cccc(Oc2ccccc2)c1 [Compound 121] | > 100 | 0.1 | > 0.1 |
| CCCC(=Nc1ccc(F)c(Cl)c1)OCc1cccc(Oc2ccccc2)c1 [Compound 123] | > 100 | 0.012 | > 0.1 |
| CC(C)C(=Nc1cccc(C#N)c1)OCc1cccc(Oc2ccccc2)c1 [Compound 126] | > 100 | 0.08 | > 0.1 |
| CC(=O)c1cccc(N=C(OCc2cccc(Oc3ccccc3)c2)C(C)C)c1 [Compound 170] | 37 | 0.1 | > 0.1 |
| CCOc1cccc(N=C(OCc2cccc(Oc3ccccc3)c2)C(C)C)c1 [Compound 171] | 80 | 0.01 | > 0.1 |
| CC(C)C(=Nc1ccc2c(c1)OC(C)(C)O2)OCc1cccc(Oc2ccccc2)c1 [Compound 182] | 28 | 0.0006 | 0.04 |
| CC(C)C(=Nc1ccc2c(c1)OCO2)OCc1cccc(Oc2ccccc2F)c1 [Compound 183] | 10 | 0.00075 | 0.075 |
| CCCC(=Nc1ccc(OC)cc1)OCc1cccc(Oc2ccccc2)c1 [Compound 184] | 61 | 0.024 | > 0.1 |

| SMILES | LC50 HF [1] [µg] | LC50 CL [2] [%] | LC50 TBW E (eggs) [3] [%] |
| --- | --- | --- | --- |
| CCC(C)C(=Nc1ccc2c(c1)OCO2)OCc1cccc(Oc2ccccc2)c1 (stereo not drawn) [Compound 185] | 13 | 0.0006 | 0.075 |
| CC(C)C(=Nc1ccc2c(c1)OCO2)OCc1cccc(Oc2ccccc2F)c1 [Compound 190] | 7.5 | 0.0004 | 0.023 |
| CC(C)C(=Nc1cccc(C(F)(F)F)c1)OCc1cccc(Oc2cccc(F)c2)c1 [Compound 192] | 25 | 0.0012 | 0.07 |
| CC(C)C(=Nc1ccc(Cl)c(C(F)(F)F)c1)OCc1cccc(Oc2cccc(F)c2)c1 [Compound 195] | > 100 | 0.002 | > 0.1 |
| CC(C)C(=Nc1ccc(F)cc1)OCc1cccc(Oc2ccc(F)cc2)c1 [Compound 197] | > 100 | 0.0004 | 0.05 |
| CC(C)C(=Nc1cccc(F)c1)OCc1cccc(Oc2ccc(F)cc2)c1 [Compound 200] | 7.5 | 0.00075 | 0.1 |
| COc1cccc(N=C(OCc2cccc(Oc3ccc(F)cc3)c2)C(C)C)c1 [Compound 201] | 15 | 0.004 | > 0.1 |
| CC(C)C(=Nc1ccc(Cl)c(Cl)c1)OCc1cccc(Oc2cccc(Cl)c2)c1 [Compound 207] | > 100 | 0.008 | > 0.1 |
| CC(C)C(=Nc1ccc(F)c(F)c1)OCc1cccc(Oc2ccc(Br)cc2)c1 [Compound 275] | 21 | 0.00012 | 0.045 |
| CC(C)C(=Nc1ccc(F)c(Br)c1)OCc1cccc(Oc2ccc(Br)cc2)c1 [Compound 276] | 39 | 0.002 | 0.1 |
| CC(C)C(=Nc1ccc(C2CCCCC2)cc1)OCc1cccc(Oc2ccc(F)cc2)c1 [Compound 280] | > 100 | 0.024 | > 0.1 |
| CC(C)C(=Nc1ccc(C(F)(F)F)cc1)OCc1ccc(F)c(Oc2ccc(F)cc2)c1 [Compound 287] | > 100 | 0.0025 | > 0.1 |
| CC(C)C(=Nc1cccc(OC(F)(F)C(F)F)c1)OCc1cccc(Oc2ccc(F)cc2)c1 [Compound 288] | > 100 | 0.0015 | > 0.1 |
| CCC(CC)C(=Nc1ccc(Cl)cc1)OCc1cccc(Oc2ccc(F)cc2)c1 [Compound 290] | > 100 | 0.017 | > 0.1 |
| CCC(CC)C(=Nc1cccc(C(F)(F)F)c1)OCc1cccc(Oc2ccc(F)cc2)c1 [Compound 291] | > 100 | 0.004 | > 0.1 |
| CC(Br)C(=Nc1ccc(F)c(Cl)c1)OCc1cccc(Oc2ccc(F)cc2)c1 (stereo not drawn) [Compound 305] | > 100 | 0.048 | > 0.1 |
| CC(C)C(=Nc1ccc(C(C)(C)C)c(Cl)c1)OCc1cccc(Oc2ccc(F)cc2)c1 [Compound 308] | > 100 | 0.009 | > 0.1 |
| CC(C)(F)C(=Nc1ccc(F)c(Cl)c1)OCc1cccc(Oc2ccc(F)cc2)c1 [Compound 309] | > 100 | 0.00017 | 0.07 |
| CC(C)C(=Nc1ccc(F)c(Cl)c1)OC(F)c1cccc(Oc2ccc(F)cc2)c1 (stereo not drawn) [Compound 502] | 80 |  |  |
